In patent US5623080A, “Fluorone and pyronin Y derivatives” (Spectra Group Limited, Inc., priority 1995, dated 1997):

What was measured:
[1] = pencil hardness
Method: (§1) To a resin formulation consisting of 15 parts urethane diacrylate, 15 parts DPHPA, 20 parts TPGDA and 40 parts TMPTA was added DIDMA, initiator and (4-octyloxyphenyl)phenyliodonium hexafluoroantimonate (OPPI). The samples were coated to a thickness of 15 microns and exposed to a 75 W tungsten halogen dental lamp (focused through an optical fiber) at a distance of 0.75 inch at which the Light intensity was about 0.40 W/cm^2. The molar ratios are indicative of the amounts of fluorone to onium salt to amine coinitiator. The double bond conversion was determined by FTIR spectroscopy. The pencil hardness of a given test sample is measured by holding a pencil at a 45° angle to the sample and drawing across it towards the person testing it. Using the pencils in an order from softest to hardest, the first pencil that scratches the surface is assigned as the pencil hardness of the sample. The pencil hardness scale is as follows from softest to hardest: 4B, 3B, 2B, B, HB, H, 2H, 3H, 4H, 6H. For instance, if a 2H pencil is the first pencil to scratch the surface then the pencil hardness is 2H.
At the extreme ends of the scale, it is impossible to determine the actual pencil hardness. […] Likewise, if the 4B pencil scratches the sample, the only assignment that can be made is <4B, unless it is a lot softer than 4B in which case a <<4B can be assigned. A pencil hardness of 4H is generally considered satisfactory. Pencil hardness data was greater than 6H after 30 seocnd exposure for all samples except for the control samples without amine (1:2:0). The controls were all less than 4B an 0.05 wt %, 0.10 wt %, and 0.15 wt %.
Photosensitive compositions were prepared from the resin formulation of Example 35 containing 1% NPG and 0.05% DIBF or 0.05% DIEF. The samples were exposed under the conditions shown in the following table and pencil hardness was measured.
Diphenyliodonium hexafluoroantimonate was added to DIBF samples.
Samples were also prepared using 1% DIDMA in addition to the fluorone for a 20:1 weight ratio.
Samples were also prepared from the same resin formulation containing 0.1% DIBF in addition to the coinitiator listed in the following Table 9 with the exposure condition and pencil hardness results shown.
Using the resin formulation of Example 36, photosensitive compositions were prepared using TIHF, DIDMA and OPPI at a concentration of 0.21% and in the molar ratios shown in Table 10 which follows. Exposure was conducted with the dental lamp at a distance of 1 inch from the sample to provide an intensity of about 0.26 W/cm^2. Molar ratios are fluorone:onium salt:amine.

[2] = double bond conversion (C=C% Conversion) by FTIR; settings: 0.05 wt %; (1:2:3); NPG; 60 sec
[3] = double bond conversion (C=C% Conversion) by FTIR; settings: DIDMA
Method: as §1
The foregoing study was repeated using 100% butanediol diacrylate, and 100% polyethylene glycol diacrylate (MW=400)(PEGA 400).

[4] = double bond conversion (C=C% Conversion) by FTIR
Method: as §1

For CCCCOc1ccc2cc3cc(I)c(=O)c(I)c-3oc2c1 [DIBF, 5,7-diiodo-3-butoxy-6-fluorone], the Pencil hardness ([1]; 0.05 wt. % w/ 0.05 wt. % DPISbF6, Dental Lamp, Air, 60 sec) was 2H, the Pencil hardness ([1]; 0.05 wt. % w/ 0.05 wt. % DPISbF6, Dental Lamp, No Air, 10 sec) was > 6H and the Pencil hardness ([1]; 0.05 wt. % w/ 0.05 wt. % DPISbF6, Fusion (Q bulb), Air, 10 ft/min) was > 6H. The Pencil hardness ([1]; 0.05 wt. % w/ 0.05 wt. % DPISbF6, Fusion (Q bulb), Air, 20 ft/min) was > 6H, the Pencil hardness ([1]; 0.05 wt. %, 1% DIDMA, Dental Lamp, No Air, 10 sec) was 5-6H and the Pencil hardness ([1]; 0.05 wt. %, 1% DIDMA, Dental Lamp, No Air, 30 sec) was > 6H. For the same molecule, the Pencil hardness ([1]; 0.05 wt. %, 1% DIDMA, Dental Lamp, No Air, 60 sec) was > 6H, the Pencil hardness ([1]; 0.05 wt. %, 1% DIDMA, Fusion (Q bulb), Air, 10 ft/min) was > 6H and the Pencil hardness ([1]; 0.05 wt. %, 1% DIDMA, Fusion (Q bulb), Air, 20 ft/min) was 3H. For the same molecule, the Pencil hardness ([1]; 0.05 wt. %, 1% NPG, Dental Lamp, No Air, 10 sec) was 4H, the Pencil hardness ([1]; 0.05 wt. %, 1% NPG, Dental Lamp, No Air, 30 sec) was > 6H and the Pencil hardness ([1]; 0.05 wt. %, 1% NPG, Dental Lamp, No Air, 60 sec) was > 6H. For the same molecule, the Pencil hardness ([1]; 0.05 wt. %, 1% NPG, Fusion (Q bulb), Air, 10 ft/min) was > 6H, the Pencil hardness ([1]; 0.05 wt. %, 1% NPG, Fusion (Q bulb), Air, 20 ft/min) was 4H and the Pencil hardness ([1]; 0.05 wt. %, 1% NPG, Overhead Proj., No Air, 60 sec) was 5-6H. For the same molecule, the Pencil hardness ([1]; 0.1% DIBF, 1.5% DIDMA, Dental Lamp, No Air, 10 sec) was > 6H, the Pencil hardness ([1]; 0.1% DIBF, 1.5% DIDMA, Dental Lamp, No Air, 30 sec) was > 6H and the Pencil hardness ([1]; 0.1% DIBF, 1.5% DIDMA, Dental Lamp, No Air, 60 sec) was > 6 h. The Pencil hardness ([1]; 0.1% DIBF, 1.5% DIDMA, Fusion (Q bulb), Air, 10 ft/min) was > 6H, the Pencil hardness ([1]; 0.1% DIBF, 1.5% DIDMA, Fusion (Q bulb), Air, 20 ft/min) was 5-6H and the Pencil hardness ([1]; 0.1% DIBF, 1.5% NPG, Dental Lamp, No Air, 10 sec) was 5-6H. For the same molecule, the Pencil hardness ([1]; 0.1% DIBF, 1.5% NPG, Dental Lamp, No Air, 30 sec) was > 6H, the Pencil hardness ([1]; 0.1% DIBF, 1.5% NPG, Dental Lamp, No Air, 60 sec) was > 6 h and the Pencil hardness ([1]; 0.1% DIBF, 1.5% NPG, Fusion (Q bulb), Air, 10 ft/min) was > 6H. The Pencil hardness ([1]; 0.1% DIBF, 1.5% NPG, Fusion (Q bulb), Air, 20 ft/min) was 5-6H, the Pencil hardness ([1]; 0.1% DIBF, 2% NPG, Dental Lamp, No Air, 10 sec) was 5-6H and the Pencil hardness ([1]; 0.1% DIBF, 2% NPG, Dental Lamp, No Air, 30 sec) was > 6H. The Pencil hardness ([1]; 0.1% DIBF, 2% NPG, Dental Lamp, No Air, 60 sec) was > 6H, the Pencil hardness ([1]; 0.1% DIBF, 2% NPG, Fusion (Q bulb), Air, 10 ft/min) was > 6H and the Pencil hardness ([1]; 0.1% DIBF, 2% NPG, Fusion (Q bulb), Air, 20 ft/min) was 5-6H. The “Pencil hardness” value ([1]; Table 11, 0.05%, (1:0:60), DIDMA, 10 sec.) was 4H, the “Pencil hardness” value ([1]; Table 11, 0.05%, (1:0:60), DIDMA, 60 sec.) was > 6H and the “Pencil hardness” value ([1]; Table 11, 0.05%, (1:1:60), DIDMA, 10 sec.) was > 6H. The “Pencil hardness” value ([1]; Table 11, 0.05%, (1:2:3), DIDMA, 60 sec.) was > 6H, the “Pencil hardness” value ([1]; Table 11, 0.05%, (1:2:3), NPG, 60 sec.) was > 6H and the “Pencil hardness” value ([1]; Table 11, 0.10%, (1:2:3), DIDMA, 60 sec.) was > 6H. The “Pencil hardness” value ([1]; Table 11, 0.15%, (1:2:3), DIDMA, 60 sec.) was > 6H, the “C=C% Conversion” value [2] was 43% and the “C=C% Conversion” value ([3]; 0.05 wt %, (1:0:60), 30 sec) was 30%. The “C=C% Conversion” value ([3]; 0.05 wt %, (1:2:3), 30 sec) was 49%, the “C=C% Conversion” value ([3]; 0.10 wt %, (1:2:3), 30 sec) was 56% and the “C=C% Conversion” value ([3]; 0.10 wt %, (1:2:3), 60 sec) was 56%. For the same molecule, the “C=C% Conversion” value ([3]; 0.15 wt %, (1:3:3), 30 sec) was 58%, the “C=C% Conversion” value ([4]; 0.05 wt %, (1:0:60), DIDMA, 30 sec) was 37% and the “C=C% Conversion” value ([4]; 0.05 wt %, (1:1:60), DIDMA, 30 sec) was 37%. The “C=C% Conversion” value ([4]; 0.05 wt %, (1:2:0), DIDMA, 30 sec) was 5%, the “C=C% Conversion” value ([4]; 0.05 wt %, (1:2:3), DIDMA, 30 sec) was 40% and the “C=C% Conversion” value ([4]; 0.05 wt %, (1:2:3), DIDMA, 60 sec) was 43%. For the same molecule, the “C=C% Conversion” value ([4]; 0.05 wt %, (1:2:3), NPG, 30 sec) was 40%, the “C=C% Conversion” value ([4]; 0.05 wt %, (1:2:5), DIDMA, 30 sec) was 40% and the “C=C% Conversion” value ([4]; 0.05 wt %, (1:2:60), DIDMA, 30 sec) was 43%. The “C=C% Conversion” value ([4]; 0.10 wt %, (1:2:0), DIDMA, 30 sec) was 18%, the “C=C% Conversion” value ([4]; 0.10 wt %, (1:2:3), DIDMA, 30 sec) was 45% and the “C=C% Conversion” value ([4]; 0.10 wt %, (1:2:3), DIDMA, 60 sec) was 47%. For the same molecule, the “C=C% Conversion” value ([4]; 0.15 wt %, (1:2:0), DIDMA, 30 sec) was 19%, the “C=C% Conversion” value ([4]; 0.15 wt %, (1:2:3), DIDMA, 30 sec) was 50% and the “C=C% Conversion” value ([4]; 0.15 wt %, (1:2:3), DIDMA, 60 sec) was 54%. The “C=C% Conversion” value ([4]; 0.20 wt %, (1:2:3), DIDMA, 30 sec) was 51% and the “C=C% Conversion” value ([4]; 0.25 wt %, (1:2:3), DIDMA, 30 sec) was 50%.
